Measured values from patent EP0194571A1, “Heterocyclic disulfides, process for their preparation and pharmaceutical preparations containing them” (HOECHST AKTIENGESELLSCHAFT, priority 1985, dated 1986).

Columns and labels:
[1] = system: Maus-Peritonealmakrophagen; experiment: Pinocytosis of colloidal gold (198Au) by peritoneal macrophages from treated mice; type: in vivo, NMRI-Mäuse; conditions: uptake of colloidal 198Au
Protocol: (§1) Hier wurde der Einfluß der nach Ausführungsbeispiel 8 erhaltenen Prüfsubstanz auf die Stimulation von Peritonealmakrophagen bei 6- 8 Wochen alten NMRI-Mäusen untersucht. Mäuseweibchen erhielten auf parenteralem oder oralem Wege die Prüfsubstanz in einer Dosis von 25 mg/kg, 50 mg/kg, 100 mg/kg und 200 mg/kg. Der Kontrollgruppe wurde gepufferte Kochsalzlösung verabreicht. Drei Tage nach den Injektionen wurden die Mäuse getötet, und es wurden die Peritonealmakrophagen der Tiere auf ihren Aktivierungszustand hin untersucht. Als Maß der Makrophagenaktivierung wurde zum einen die Sekretion der lyosomalen Enzyme (ß-Galactosidase, ß-Glucuronidase, N-Acetyl-ß-D-Glucosaminidase) bestimmt. Auf der anderen Seite konnte in vergleichbaren Makrophagenkulturen die Pinozytose durch die Aufnahme von kolloidalem Gold (^19^8Au) - wie sie dem Fachmann bekannt ist - untersucht werden. Die Höhe des oxidativen Stoffwechsels bei Makrophagen gilt als ein weiteres Maß für ihren Aktivierungszustand. Gemessen wird diese Aktivität unter Zuhilfenahme des Biolumaten durch Bestimmung der Chemolumineszenz.
(§2) Zu diesem Zweck wurden entweder in Petrischalen von 30 mm Durchmesser 3 x 10^6 Makrophagen mit 1 ml TC 199-Kulturmedium oder aber 10^6 Makrophagen mit 100 µl in Rundbogen-Polyäthylen-Röhrchen (zur Bestimmung der Chemolumineszenz) bei 5 % G02 und 37°C kultiviert.
(§3) Nach einstündiger Bebrütung wurden die Kulturen gewaschen, um schwimmende Zellen zu entfernen. Die Chemolumineszenz (Röhrchenkultur) wurde dann direkt bestimmt, während die Petrischalen erneut 24 Stunden bei 37°C bebrütet wurden und danach die Enzym- und Pinozytoseaktivität in den Kulturen bestimmt wurde. Es wurden die nachstehenden Ergebnisse erzielt.
Die quantitative Bestimmung der Pinozytoseaktivität bei mononukleären Phagozyten wurde nach der Methode von Davies et al. durchgeführt (Davies, P. Allison, A.C. und Haswell, A.D.; Biochem. Biophys. Res. Com. 52, 627, 1973). Dazu wurde radioaktives, kolloidales Gold (^198Au) mit einer Partikelgröße von 20 nm und einer spezifischen Aktivität von 4-12 mCl/mg Au benutzt. Die Ergebnisse in Tabelle 4 veranschaulichen den Effekt der nach Beispiel 8 erhaltenen Prüfsubstanz auf die Endozytoseleistung. Die Pinozytose von kolloidalem Gold (^19^8Au) durch Maus-Peritonealmakrophagen von mit der erfindungsgemäßen Verbindung behandelten Tieren ist im Vergleich mit den Makrophagen von unbehandelten Tieren signifikant und dosisabhängig erhöht.

[2] = system: Maus-Peritonealmakrophagen; experiment: Activation of mononuclear phagocytes: release of lysosomal hydrolases (exocytosis) by peritoneal macrophages from treated mice; type: in vivo, NMRI-Mäuse; conditions: for N-Ac-Glu: N-Acetyl-ß-D-Glucosaminidase in culture supernatant; for ß-Gal: ß-Galactosidase in culture supernatant; for ß-Glu: ß-Glucuronidase in culture supernatant
Protocol: as §1, §2, §3
Aus der Tabelle 3 ist zu entnehmen, daß Makrophagen von Kontrollmäusen nur geringe Mengen an lysosomalen Enzymen (ß-Glucuronidase, ß-Galactosidase, N-Acetyl-ß-D-Glucosaminidase) in den Kulturüberstand abgeben. Mononukleare Phagozyten von Mäusen, die parenteral oder oral mit der Prüfsubstanz 72 Stunden behandelt wurde, sezernieren die o.a. sauren Hydrolasen (ß-Glu, ß-Gal, N-Ac-Glu) deutlich mehr und weisen damit eine Dosiswirkungskurve auf, die bei allen gemessenen Enzymen eine Überlegenheit gegenüber den Kontrollen erkennen läßt. Es ist ersichtlich, daß die Prüfsubstanz eine stimulierende Wirkung auf die Makrophagenaktivität besitzt und zur Erhöhung der Enzymfreisetzung beiträgt.
(§4) Wie im Experiment 2 beschrieben, wurden NMRI-Mäuse mit den erfindungsgemäßen Verbindungen behandelt.
(§5) Als Test zur Erfassung der Immunstimulation wurde die Funktion der Makrophagen (Chemolumineszenz und Enzymaktivität) überprüft.
(§6) Tabelle 8 zeigt die relative Wirksamkeit der Prüfsubstanzen bezogen auf die Verbindung aus Beispiel 8, deren maximale Aktivierung (Differenz zwischen Kontrolle und Stimulation) 100 % entspricht. Der Tabelle ist zu entnehmen, daß im Vergleich zu Makrophagen aus unbehandelten Tieren, diese Zellen auch durch alle Prüfsubstanzen in ihrer Chemolumineszenzreaktion stark stimuliert und in ihrem Gehalt an lysosomalen Enzymen deutlich erhöht waren.

[3] = system: Maus-Peritonealmakrophagen; experiment: Activation of mononuclear phagocytes: oxidative metabolism (chemiluminescence) of peritoneal macrophages from treated mice; type: in vivo, NMRI-Mäuse; conditions: relative to maximal activation by compound of Beispiel 8 = 100 %; 100 mg/kg i.p.
Protocol: as §1, §2, §3
Die parenterale sowie die orale Behandlung von NMRI-Mäusen mit der gemäß Beispiel 8 hergestellten Prüfsubstanz stimuliert die Makrophagenaktivität und hat damit eine immunitätstimulierende Wirkung. So wird der oxidative Stoffwechsel bei Makrophagen mit der Generierung von Sauerstoffradikalen und dem damit verbundenen meßbaren Licht deutlich erhöht. Bei Dosierungen von 25 mg/kg aufwärts kommt es zu einer dosisabhänigen Steigerung der Makrophagenaktivität sowohl bei parenteraler als auch oraler Applikation.
as §4, §5, §6

B16-Melanom = experiment: Tumour defence against B16 melanoma (lung metastases after removal of primary tumour), survival time; type: in vivo, C57B1/6 Mäusen; conditions: control 26 Tagen
Protocol: Bei weiblichen C57B1/6 Mäusen (10 Tiere/Gruppe) mit einem Gewicht von 18 - 20 g wurde mit 2 x 10^5 lebenden B16-Melanomzellen ein Primärtumorwachstum induziert. Nach Ausprägung einer bestimmten Tumorgröße (0.65 cm im Durchmesser) wurde der Primärtumor entfernt. Die unbehandelten Tiere starben dann an Metastasen in der Lunge. Nach der Tumorinduktion wurden die Tiere an den Tagen 3, 5, 7, 9, 11, und 13 nach Amputation des Primärtumors mit 50, 100 und 200 mg/kg der nach Beispiel 8 erhaltenen Prüfsubstanz intraperitoneal behandelt. Aus der Absterberate nach Amputation des Primärtumors durch die Entwicklung von Lungenmetastasen lassen sich entsprechend die mittleren ffberlebenszeiten berechnen. Danach sterben die Tiere der Kontrollgruppe zu 50 % nach 26 Tagen. Die mit der Prüfsubstanz behandelten Gruppen zeigten (vgl. Tabelle 10) mit den entsprechenden Dosierungen eine signifikante Erhöhung der mittleren Überlebenszeit auf 43, 40 und 35 Lage.

`Cc1nc(SSc2nc(C)c(CC(=O)O)s2)sc1CC(=O)O` [Beispiel 8, Bis-(5-Carboxymethyl-4-methyl-thiazol-2-yl)-disulfid] was tested, and the “Pinozytoseleistung von Mausmakrophagen” value ([1]; 1 x 25 mg/kg intraperitoneal) was 0,341 " " x 10^3 cpm, the “Pinozytoseleistung von Mausmakrophagen” value ([1]; 1 x 25 mg/kg oral) was 0,272 " " x 10^3 cpm and the “Pinozytoseleistung von Mausmakrophagen” value ([1]; 1 x 50 mg/kg intraperitoneal) was 0,396 " " x 10^3 cpm. For the same compound, the “Pinozytoseleistung von Mausmakrophagen” value ([1]; 1 x 50 mg/kg oral) was 0,358 " " x 10^3 cpm, the “Pinozytoseleistung von Mausmakrophagen” value ([1]; 1 x 100 mg/kg intraperitoneal) was 0,462 " " x 10^3 cpm and the “Pinozytoseleistung von Mausmakrophagen” value ([1]; 1 x 100 mg/kg oral) was 0,416 " " x 10^3 cpm. For the same compound, the “Pinozytoseleistung von Mausmakrophagen” value ([1]; 1 x 200 mg/kg intraperitoneal) was 0,587 " " x 10^3 cpm, the “Pinozytoseleistung von Mausmakrophagen” value ([1]; 1 x 200 mg/kg oral) was 0,506 " " x 10^3 cpm and the N-Ac-Glu ([2]; 1 x 25 mg/kg i.p.) was 2786 mU/ml. It also gave a N-Ac-Glu ([2]; 1 x 25 mg/kg p.o.) of 1947 mU/ml, a N-Ac-Glu ([2]; 1 x 50 mg/kg i.p.) of 3315 mU/ml and a N-Ac-Glu ([2]; 1 x 50 mg/kg p.o.) of 2862 mU/ml. For the same compound, the N-Ac-Glu ([2]; 1 x 100 mg/kg i.p.) was 4305 mU/ml, the N-Ac-Glu ([2]; 1 x 100 mg/kg p.o.) was 3676 mU/ml and the N-Ac-Glu ([2]; 1 x 200 mg/kg i.p.) was 6548 mU/ml. For the same compound, the N-Ac-Glu ([2]; 1 x 200 mg/kg p.o.) was 5621 mU/ml, the “Makrophagenaktivität Exozytose” value ([2]; lysosomal enzyme activity, relative to maximal activation by compound of Beispiel 8 = 100 %, 100 mg/kg i.p.) was 100% and the ß-Gal ([2]; 1 x 25 mg/kg i.p.) was 2584 mU/ml. It also gave a ß-Gal ([2]; 1 x 25 mg/kg p.o.) of 4917 mU/ml, a ß-Gal ([2]; 1 x 50 mg/kg i.p.) of 11058 mU/ml and a ß-Gal ([2]; 1 x 50 mg/kg p.o.) of 9179 mU/ml. The ß-Gal ([2]; 1 x 100 mg/kg i.p.) was 17596 mU/ml, the ß-Gal ([2]; 1 x 100 mg/kg p.o.) was 13195 mU/ml and the ß-Gal ([2]; 1 x 200 mg/kg i.p.) was 22351 mU/ml. For the same compound, the ß-Gal ([2]; 1 x 200 mg/kg p.o.) was 17357 mU/ml, the ß-Glu ([2]; 1 x 25 mg/kg i.p.) was 1001 mU/ml and the ß-Glu ([2]; 1 x 25 mg/kg p.o.) was 897 mU/ml. It also gave a ß-Glu ([2]; 1 x 50 mg/kg i.p.) of 1370 mU/ml, a ß-Glu ([2]; 1 x 50 mg/kg p.o.) of 1133 mU/ml and a ß-Glu ([2]; 1 x 100 mg/kg i.p.) of 1791 mU/ml. The ß-Glu ([2]; 1 x 100 mg/kg p.o.) was 1593 mU/ml, the ß-Glu ([2]; 1 x 200 mg/kg i.p.) was 2136 mU/ml and the ß-Glu ([2]; 1 x 200 mg/kg p.o.) was 1886 mU/ml. The “Makrophagenaktivität Chemolumineszenz” value [3] was 100%, the “mittlere Überlebenszeit” value (B16-Melanom; 50 mg/kg intraperitoneal on days 3, 5, 7, 9, 11, 13 after amputation of primary tumour) was 43 days and the “mittlere Überlebenszeit” value (B16-Melanom; 100 mg/kg intraperitoneal on days 3, 5, 7, 9, 11, 13 after amputation of primary tumour) was 40 days. For the same compound, the “mittlere Überlebenszeit” value (B16-Melanom; 200 mg/kg intraperitoneal on days 3, 5, 7, 9, 11, 13 after amputation of primary tumour) was 35 days.
